Data from publication PMC7605558 (bioRxiv, 2020).
Where two headings read alike, the source gives them in different places.

Key:
[1] = tested on: SARS-CoV-2 pseudovirus; format: cell-based
[2] = target: T1, SARS-CoV M^pro (Severe acute respiratory syndrome coronavirus, UniProt P0C6X7); experiment: biochemical
[3] = target: T2, MERS-CoV M^pro (Middle East respiratory syndrome-related coronavirus, UniProt K9N7C7); experiment: biochemical
[4] = target: T3, HCoV-OC43 M^pro (Human coronavirus OC43, UniProt P0C6X6); experiment: biochemical
[5] = target: T2, MERS-CoV M^pro; format: binding
[6] = target: T1, SARS-CoV M^pro; format: binding
[7] = target: T3, HCoV-OC43 M^pro; format: binding
[8] = tested on: HCoV-229E; experiment: microbe, parasite or virus in culture; format: cell-based; settings: Human coronavirus 229E, read-out: HCoV-229E (EC50, μM)
[9] = tested on: HCoV-NL63; experiment: microbe, parasite or virus in culture; format: cell-based; settings: Human coronavirus NL63, read-out: HCoV-NL63 (EC50, μM)
[10] = tested on: SARS-CoV; experiment: microbe, parasite or virus in culture; format: cell-based; settings: Severe acute respiratory syndrome coronavirus, Vero 76, 96 h, read-out: SARS-CoV (EC50, μM)
[11] = tested on: HCoV-OC43; experiment: Combination therapy with remdesivir in HCoV-OC43 CPE assay; format: cell-based; settings: combination ratios 8:1 to 1:8
[12] = tested on: SARS-CoV-2 M^pro; settings: cited from earlier work
[13] = tested on: SARS-CoV-2; settings: read-out: SARS-CoV-2 (EC50, μM), cellular antiviral activity; CPE assay; cited from earlier work
[14] = tested on: HCoV-229E; settings: read-out: EC50 against HCoV-229E; cited from earlier work
[15] = target: T1, SARS-CoV M^pro; settings: cited from earlier work

T3 sequence (P0C6X6 3247-3549 limits assumed): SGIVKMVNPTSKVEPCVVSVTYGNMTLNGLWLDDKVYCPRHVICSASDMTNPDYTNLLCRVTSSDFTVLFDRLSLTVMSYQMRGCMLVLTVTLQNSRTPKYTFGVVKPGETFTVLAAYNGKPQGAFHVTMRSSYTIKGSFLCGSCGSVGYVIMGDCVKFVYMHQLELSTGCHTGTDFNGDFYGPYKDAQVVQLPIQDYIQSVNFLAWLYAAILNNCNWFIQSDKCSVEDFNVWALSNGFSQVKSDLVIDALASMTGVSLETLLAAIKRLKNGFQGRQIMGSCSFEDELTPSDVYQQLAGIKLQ
T2 sequence (K9N7C7 3248-3553 limits assumed): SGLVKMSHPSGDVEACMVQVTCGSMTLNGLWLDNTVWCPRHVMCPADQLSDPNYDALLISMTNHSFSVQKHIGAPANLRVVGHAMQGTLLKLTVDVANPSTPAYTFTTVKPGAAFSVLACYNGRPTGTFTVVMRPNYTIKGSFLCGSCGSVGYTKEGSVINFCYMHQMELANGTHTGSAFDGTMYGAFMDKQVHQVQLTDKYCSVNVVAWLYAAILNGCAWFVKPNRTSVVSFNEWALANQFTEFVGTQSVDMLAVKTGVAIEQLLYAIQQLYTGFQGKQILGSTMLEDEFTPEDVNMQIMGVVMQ

With `CCOC(=O)[C@H]1O[C@@H]1C(=O)N[C@@H](CC(C)C)C(=O)NCCC(C)C` [E-64d] the IC50 ([1]; read-out: IC50 of SARS-CoV-2 pseudovirus entry) was 910 ± 100 nM.
`CC(C)(C)NC(=O)N[C@H](C(=O)N1C[C@H]2[C@@H]([C@H]1C(=O)NC(CC1CCC1)C(=O)C(N)=O)C2(C)C)C(C)(C)C` (stereo partly drawn) [boceprevir] showed an IC50 [2] of 6630 nM, a Ki ([2]; KI against SARS-CoV M^pro) of 1430 nM and an IC50 [3] of 10400 nM. For the same compound, the Ki [3] was 1650 ± 120 nM, the IC50 [4] was 9000 nM and the Ki [4] was 2290 nM. For the same compound, the “effect on cathepsin L-mediated SARS-CoV-2 pseudovirus entry” value [1] was “no effect”, the “MERS-CoV M^pro (ΔTm, °C)” value [5] was 2.46 ± 0.07 °C and the “SARS-CoV M^pro (ΔTm, °C)” value [6] was 3.94 ± 0.13 °C. For the same compound, the “HCoV-OC43 M^pro (ΔTm, °C)” value [7] was 1.02 ± 0.05 °C, the EC50 [8] was 14.1 ± 1.5 µM and the EC50 [9] was 16.9 ± 5.87 µM. The EC50 [10] was 54.2 ± 7.76 µM, the “antiviral effect in combination with remdesivir (combination indices)” value [11] was “additive antiviral effect” and the IC50 ([12]; read-out: IC50 against SARS-CoV-2 M^pro, enzymatic assay) was […]. The EC50 [13] was 1.31 ± 0.58 µM.
With `CCC(CC)COC(=O)[C@H](C)N[P@](=O)(OC[C@H]1O[C@@](C#N)(c2ccc3c(N)ncnn23)[C@H](O)[C@@H]1O)Oc1ccccc1` [remdesivir] the “HCoV-OC43 M^pro (ΔTm, °C)” value [7] was 0.00 ± 0.02 °C, the “effect on HCoV-OC43 M^pro stability (Tm)” value [7] was “no effect” and the EC50 [8] was 0.03 µM. The EC50 [9] was 0.63 ± 0.041 µM.
In the case of `CCOC(=O)/C=C/[C@H](C[C@@H]1CCNC1=O)NC(=O)[C@@H](CC(=O)[C@@H](NC(=O)c1cc(C)on1)C(C)C)Cc1ccc(F)cc1` [rupintrivir], the “inhibition of SARS-CoV-2 M^pro” value [12] is listed as “failed to inhibit”, the EC50 [14] is listed as 300 nM and the “inhibition of SARS-CoV M^pro” value [15] is listed as “failed to inhibit”.
